Values quoted from earlier work as cited in patent US6555583B2, “Therapies for treating pulmonary diseases” (SmithKline Beecham Corporation, priority 1998, dated 2003).

Conditions: rolipram developed as an antidepressant

Compound: COc1ccc(C2CNC(=O)C2)cc1OC1CCCC1 (stereo not shown) [rolipram]
- side effects in clinical studies: psychotropic activity and produces gastrointestinal effects
